Data reported in PMC3734177, “Design, Synthesis, Evaluation and Thermodynamics of 1-Substituted Pyridylimidazo[1,5-a]Pyridine Derivatives as Cysteine Protease Inhibitors” (PLoS ONE, 2013).
Values after ≈ are worked out from the molar mass of the structure shown. Where two headings read alike, the source gives them in different places.

Assays:
Type in all cases: cell-based
[1] = system: Bacillus spp. (ATCC-14593); assay: MIC, micro dilution method; conditions: ATCC14593; Bacillus sp.
Method: (§1) The disk diffusion method was used for the preliminary antibacterial evaluation of 1-pyridylimidazo[1,5-a]pyridine derivatives. The MIC50 of these derivatives, showing inhibition in the preliminary tests, were further determined by the microtitre plate technique using micro dilution method. In brief, the bacterial strains (S. aureus, P. vulgaris, Group D Streptococci, Bacillus sp., E. coli, P. aeruginosa and S. morganii)) were grown and diluted to 2×10^5 colony-forming units (CFU)/ml in sodium phosphate buffer (SPB) containing 0.03% Luria–Bertani (LB) broth. The synthesized derivatives were dissolved in DMSO and their serial dilution was performed in 50 µL of LB medium in 96-well microtitre plate to achieve the required concentrations (0.1–10 µg/ml) with bacterial inoculums (5×10^4 CFU per well). DMSO was taken as negative control and Ceftriaxone and clotrimazole were taken as positive control. After incubation at 37°C overnight, the MICs were taken as the lowest inhibitor concentration at which the bacterial growth was inhibited. The average of three values was calculated and that was the MIC for the test material and bacterial strain. […]

[2] = system: Escherichia coli (ATCC-25922); assay: MIC, micro dilution method; conditions: ATCC25922, E. coli
Method: as §1

[3] = system: Proteus vulgaris (ATCC-29905); assay: MIC, micro dilution method; conditions: ATCC29905, P. vulgaris
Method: as §1

[4] = system: Pseudomonas aeruginosa (ATCC-27853); assay: MIC, micro dilution method; conditions: ATCC27853
Method: as §1

[5] = system: Staphylococcus aureus (ATCC-25923); assay: MIC, micro dilution method; conditions: ATCC25923, S. aureus
Method: as §1

[6] = system: Group D Streptococci (ATCC-12959); assay: MIC, micro dilution method
Method: (§2) The disk diffusion method was used for the preliminary antibacterial evaluation of 1-pyridylimidazo[1,5-a]pyridine derivatives. The MIC50 of these derivatives, showing inhibition in the preliminary tests, were further determined by the microtitre plate technique using micro dilution method. In brief, the bacterial strains (S. aureus, P. vulgaris, Group D Streptococci, Bacillus sp., E. coli, P. aeruginosa and S. morganii)) were grown and diluted to 2×10^5 colony-forming units (CFU)/ml in sodium phosphate buffer (SPB) containing 0.03% Luria–Bertani (LB) broth. The synthesized derivatives were dissolved in DMSO and their serial dilution was performed in 50 µL of LB medium in 96-well microtitre plate to achieve the required concentrations (0.1–10 µg/ml) with bacterial inoculums (5×10^4 CFU per well). DMSO was taken as negative control and Ceftriaxone and clotrimazole were taken as positive control. After incubation at 37°C overnight, the MICs were taken as the lowest inhibitor concentration at which the bacterial growth was inhibited. The average of three values was calculated and that was the MIC for the test material and bacterial strain.
(§3) For the agar plate count method, 25 µL aliquots of bacteria at 1×10^5 CFU/ml in SPB containing 0.03% LB broth were incubated with 25 µL of diluted compounds for 2 h at 37°C. The mixtures of bacteria and compounds were serially diluted 10-fold with SPB and plated on LB plates that were incubated at 37°C overnight. Bacterial colonies were enumerated the following day.

[7] = system: Serratia morganii (ATCC- 31665); assay: MIC, micro dilution method; conditions: ATCC31665
Method: as §2, §3

[8] = system: Bacillus spp. (ATCC-14593); assay: MBC, sub cultivation from MIC plate; conditions: ATCC14593, Bacillus sp.
Method: (§4) After having determined the MICs, bacterial strains from the wells of the microtitre plate with no visible bacterial growth were removed for serial sub cultivation of 2 µl into another new microtitre plate containing 100 µl of broth per well and further incubated for 24 h. The lowest concentration with no visible growth was defined as MBC [28], indicating 99.5% killing of the original inoculum. The absorbance of each well was measured at a wavelength of 620 nm by Microplate Manager 4.0 (Bio-Rad laboratories) and compared with a blank. Solvent (DMSO) was used as a negative control. Three replicates were done for each compound and experiment was repeated two times.

[9] = system: Escherichia coli (ATCC-25922); assay: MBC, sub cultivation from MIC plate; conditions: ATCC25922, E. coli
Method: as §4

[10] = system: Group D Streptococci (ATCC-12959); assay: MBC, sub cultivation from MIC plate
Method: as §4

[11] = system: Proteus vulgaris (ATCC-29905); assay: MBC, sub cultivation from MIC plate; conditions: ATCC29905, P. vulgaris
Method: as §4

[12] = system: Pseudomonas aeruginosa (ATCC-27853); assay: MBC, sub cultivation from MIC plate
Method: as §4

[13] = system: Serratia morganii (ATCC- 31665); assay: MBC, sub cultivation from MIC plate
Method: as §4

[14] = system: Staphylococcus aureus (ATCC-25923); assay: MBC, sub cultivation from MIC plate; conditions: ATCC25923, S. aureus
Method: as §4

[15] = system: Bacillus spp. (ATCC-14593); assay: MIC, micro dilution method; conditions: ATCC14593; Bacillus sp.; remark: listed apart in the source

Which results are given for `CO/N=C(\C(=O)N[C@@H]1C(=O)N2C(C(=O)O)=C(CSc3nc(=O)c(=O)[nH]n3C)CS[C@H]12)c1csc(N)n1` [Ceftriaxone, reference compound]?
MIC50 [1]: 0.8 µg/mL (≈ 1.44 µM); MIC50 [2]: 0.07 µg/mL (≈ 0.126 µM); MIC90 [2]: 0.12 µg/mL (≈ 0.216 µM); MIC50 [3]: 0.4 µg/mL (≈ 0.721 µM); MIC90 [3]: 0.8 µg/mL (≈ 1.44 µM); MIC50 [4]: 1.5 µg/mL (≈ 2.7 µM); MIC90 [4]: 3 µg/mL (≈ 5.41 µM); MIC50 [5]: 3.8 µg/mL (≈ 6.85 µM); MIC90 [5]: 6 µg/mL (≈ 10.8 µM); MIC50 [6]: 0.08 µg/mL (≈ 0.144 µM); MIC90 [6]: 1.4 µg/mL (≈ 2.52 µM); MIC50 [7]: 0.9 µg/mL (≈ 1.62 µM); MIC90 [7]: 1.5 µg/mL (≈ 2.7 µM); MBC ([8]; read-out: MBC50): 1.7 µg/mL (≈ 3.07 µM); MBC ([8]; read-out: MBC90): 3.1 µg/mL (≈ 5.59 µM); MBC ([9]; read-out: MBC50): 0.14 µg/mL (≈ 0.252 µM); MBC ([9]; read-out: MBC90): 0.24 µg/mL (≈ 0.433 µM); MBC ([10]; read-out: MBC50): 1.5 µg/mL (≈ 2.7 µM); MBC ([10]; read-out: MBC90): 1.9 µg/mL (≈ 3.43 µM); MBC ([11]; read-out: MBC50): 0.9 µg/mL (≈ 1.62 µM); MBC ([11]; read-out: MBC90): 1.2 µg/mL (≈ 2.16 µM); MBC ([12]; ATCC27853, read-out: MBC50): 3.2 µg/mL (≈ 5.77 µM); MBC ([12]; ATCC27853, read-out: MBC90): 5.5 µg/mL (≈ 9.92 µM); MBC ([13]; ATCC31665, read-out: MBC50): 1.7 µg/mL (≈ 3.07 µM); MBC ([13]; ATCC31665, read-out: MBC90): 3.3 µg/mL (≈ 5.95 µM); MBC ([14]; read-out: MBC50): 7 µg/mL (≈ 12.6 µM); MBC ([14]; read-out: MBC90): 10 µg/mL (≈ 18 µM); MIC90 [15]: 1.6 µg/mL (≈ 2.89 µM)

With `Clc1ccccc1C(c1ccccc1)(c1ccccc1)n1ccnc1` [Clotrimazole, 1-[(2-chlorophenyl)(diphenyl)methyl]-1H-imidazole, reference compound] as the compound, how does the MIC50 [2] read?
Its MIC50 is 45 µg/mL (≈ 130 µM).

And the MIC90 [2]?
The MIC90 was 85 µg/mL (≈ 246 µM).

What about the MIC50 [3] of the same compound?
Its MIC50 is 0.00084 µg/mL (≈ 0.00244 µM).

And the MIC90 [3]?
Its MIC90 is 0.00145 µg/mL (≈ 0.0042 µM).

What about the MIC50 [4] of the same compound?
The MIC50 was 40 µg/mL (≈ 116 µM).

What about the MIC90 [4] of the same compound?
Its MIC90 is 75 µg/mL (≈ 217 µM).

And the MIC50 [5]?
The MIC50 was 0.0009 µg/mL (≈ 0.00261 µM).

What about the MIC90 [5] of the same compound?
The MIC90 was 0.0016 µg/mL (≈ 0.00464 µM).

And the MBC ([9]; read-out: MBC50)?
The MBC was 75 µg/mL (≈ 217 µM).

And the MBC ([9]; read-out: MBC90)?
The MBC was 144 µg/mL (≈ 418 µM).

And the MBC ([11]; read-out: MBC50)?
Its MBC is 0.0014 µg/mL (≈ 0.00406 µM).

What about the MBC ([11]; read-out: MBC90) of the same compound?
Its MBC is 0.0032 µg/mL (≈ 0.00928 µM).

What about the MBC ([12]; ATCC27853, read-out: MBC50) of the same compound?
The MBC was 68 µg/mL (≈ 197 µM).

What about the MBC ([12]; ATCC27853, read-out: MBC90) of the same compound?
Its MBC is 134 µg/mL (≈ 389 µM).

What about the MBC ([14]; read-out: MBC50) of the same compound?
The MBC was 0.0014 µg/mL (≈ 0.00406 µM).

And the MBC ([14]; read-out: MBC90)?
The MBC was 0.003 µg/mL (≈ 0.0087 µM).
